{
  "source": "paper PMC2651907",
  "about": "“ARC (NSC 188491) has identical activity to Sangivamycin (NSC 65346) including inhibition of both P-TEFb and PKC” (2009)",
  "data": [
    {"target": "T1, P-TEFb (cdk9/cyclin T1) (Homo sapiens, UniProt P50750)", "T1 construct": "recombinant P-TEFb (cdk9/cyclin T1); with cyclin T1", "T1 sequence (P50750 whole entry)": "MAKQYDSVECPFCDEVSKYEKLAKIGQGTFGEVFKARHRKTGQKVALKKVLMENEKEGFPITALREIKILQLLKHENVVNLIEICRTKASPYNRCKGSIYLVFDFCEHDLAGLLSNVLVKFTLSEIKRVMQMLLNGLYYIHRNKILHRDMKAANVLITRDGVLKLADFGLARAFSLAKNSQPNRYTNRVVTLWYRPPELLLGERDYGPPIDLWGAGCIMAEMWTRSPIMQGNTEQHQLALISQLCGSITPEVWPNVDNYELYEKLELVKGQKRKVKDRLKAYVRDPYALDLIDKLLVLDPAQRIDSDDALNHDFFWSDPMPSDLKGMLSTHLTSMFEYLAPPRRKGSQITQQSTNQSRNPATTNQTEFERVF", "T1 sequence (O60563 whole entry partner)": "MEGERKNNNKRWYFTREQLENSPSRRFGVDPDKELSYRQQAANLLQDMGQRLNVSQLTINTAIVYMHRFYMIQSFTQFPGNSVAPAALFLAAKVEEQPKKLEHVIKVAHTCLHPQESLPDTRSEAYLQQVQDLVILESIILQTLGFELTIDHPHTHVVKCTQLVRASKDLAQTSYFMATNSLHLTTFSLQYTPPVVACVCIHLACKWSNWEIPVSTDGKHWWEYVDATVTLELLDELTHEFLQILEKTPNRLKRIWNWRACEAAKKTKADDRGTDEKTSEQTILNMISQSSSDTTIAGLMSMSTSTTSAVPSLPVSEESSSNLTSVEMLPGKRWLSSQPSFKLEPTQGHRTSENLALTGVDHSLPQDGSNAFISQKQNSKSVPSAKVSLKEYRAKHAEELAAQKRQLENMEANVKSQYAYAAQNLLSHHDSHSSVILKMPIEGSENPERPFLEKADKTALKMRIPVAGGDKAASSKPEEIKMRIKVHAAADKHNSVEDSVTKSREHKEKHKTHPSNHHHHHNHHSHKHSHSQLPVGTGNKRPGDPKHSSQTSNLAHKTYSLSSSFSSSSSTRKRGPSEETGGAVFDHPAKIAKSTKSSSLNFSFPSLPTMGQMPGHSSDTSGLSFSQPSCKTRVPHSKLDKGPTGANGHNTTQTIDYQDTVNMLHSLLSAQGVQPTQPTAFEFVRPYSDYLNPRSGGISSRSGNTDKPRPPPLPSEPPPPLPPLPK", "experiment": "[…]-ATP kinase assay with PDKtide, recombinant P-TEFb", "format": "biochemical", "values": [
      {"smiles": "NC(=O)c1cn([C@@H]2O[C@H](CO)[C@@H](O)[C@H]2O)c2ncnc(N)c12", "note": "[sangivamycin]", "32P-ATP kinase assay with PDKtide, recombinant P-TEFb": "ARC sangivamycin and toyocamycin prevent recombinant P-TEFb from phosphorylating substrate peptide (Fig. 4E)"},
      {"smiles": "NNc1c(C(N)=O)c2c(N)ncnc2n1[C@@H]1O[C@H](CO)[C@@H](O)[C@H]1O", "note": "[ARC, 4-amino-6-hydrazino-7-β-d-ribofuranosyl-7H-pyrrolo-(2,3-d)-pyrimidine-5-carboxamide]", "32P-ATP kinase assay with PDKtide, recombinant P-TEFb": "ARC sangivamycin and toyocamycin prevent recombinant P-TEFb from phosphorylating substrate peptide (Fig. 4E)"},
      {"smiles": "N#Cc1cn([C@@H]2O[C@H](CO)[C@@H](O)[C@H]2O)c2ncnc(N)c12", "note": "[toyocamycin]", "32P-ATP kinase assay with PDKtide, recombinant P-TEFb": "ARC sangivamycin and toyocamycin prevent recombinant P-TEFb from phosphorylating substrate peptide (Fig. 4E)"}
    ]}
  ]
}
